In the first assay the test system is IL-1β production in PMA-differentiated THP-1 cells. In words: IL-1β production in PMA-differentiated THP-1 cells stimulated with gramicidin (hTHP-1 assay containing 2% fetal bovine serum). In kind it is cell-based, human. The settings on record: Homo sapiens, THP-1, Table B1; 2% fetal bovine serum; cells printed as numeric bound; read-out: hTHP-1 IC50 (Average IC50 of compounds in hTHP-1 assay). The method in brief: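 IL-1β release was read by HTRF on supernatants of 50,000 PMA-primed (20 ng/ml, 16-18 h) THP-1 cells/well in 2% FBS medium. Cells saw compound for 1 h (11-point titration from 100 μM, 0.37% DMSO) before a 2 h gramicidin (5 μM) challenge.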
On to `CCc1cc2c(c(C(C)C)c1CC(=O)N=S(N)(=O)c1cc(C(C)(C)O)cs1)COC2` (single isomer, unassigned) [Example 296, (S) or (R)-N-(amino(4-(2-hydroxypropan-2-yl)thiophen-2-yl)(oxo)-λ^6-sulfaneylidene)-2-(6-ethyl-4-isopropyl-1,3-dihydroisobenzofuran-5-yl)acetamide], for which the IC50 (usually the concentration at which inhibition is half-maximal) is greater than 30 µM.

On to `CC(C)c1cc2c(c(C(C)C)c1CC(=O)N=S(N)(=O)c1cnc(C(C)(O)CO)s1)COC2` (single isomer, unassigned) [Example 339, (R, S) or (S, S)-N-(amino(2-(1,2-dihydroxypropan-2-yl)thiazol-5-yl)(oxo)-λ^6-sulfaneylidene)-2-(4,6-diisopropyl-1,3-dihydroisobenzofuran-5-yl)acetamide], for which the IC50 is greater than 30 µM.

With `CNCc1ccc(S(N)(=O)=NC(=O)Cc2c(C(C)C)cc(C(F)F)nc2C(C)C)cc1` (single isomer, unassigned) [Example 323, (S) or (R)-N-(amino(4-((methylamino)methyl)phenyl)(oxo)-λ^6-sulfaneylidene)-2-(6-(difluoromethyl)-2,4-diisopropylpyridin-3-yl)acetamide], the 50% inhibitory concentration (IC50) was greater than 30 µM.

For the molecule `CC(C)c1cnc(F)c(C(C)C)c1CC(=O)N=S(N)(=O)c1cnc(C(C)(C)O)s1` (single isomer, unassigned) [Example 316, (S) or (R)-N-(amino(2-(2-hydroxypropan-2-yl)thiazol-5-yl)(oxo)-λ^6-sulfaneylidene)-2-(2-fluoro-3,5-diisopropylpyridin-4-yl)acetamide], the IC50 is greater than 30 µM.

The assay is the same for the next values; noted with them: Homo sapiens, THP-1, Table B1; 2% fetal bovine serum; class symbols; read-out: hTHP-1 IC50 (Average IC50 of compounds in hTHP-1 assay).
As to `CC(C)(O)c1ncc(S(N)(=O)=NC(=O)Cc2cc3c(c4c2CCC4)CCC3)s1` (single isomer, unassigned) [Example 313, (R) or (S)-N-(amino(2-(2-hydroxypropan-2-yl)thiazol-5-yl)(oxo)-λ^6-sulfaneylidene)-2-(1,2,3,6,7,8-hexahydro-as-indacen-4-yl)acetamide], the IC50 is 5 to 30 µM.

As to `CC(C)c1ccc(C#N)c(C(C)C)c1CC(=O)N=S(N)(=O)c1nc(C(C)(C)O)cs1` (centres unmarked) [Example 120, N-(amino(4-(2-hydroxypropan-2-yl)thiazol-2-yl)(oxo)-λ^6-sulfaneylidene)-2-(3-cyano-2,6-diisopropylphenyl)acetamide], the IC50 is 0.2 to 1 µM.

`CC(C)c1cc(C(F)F)nc(C(C)C)c1CC(=O)N=S(N)(=O)c1sc(CN(C)C)cc1F` (centres unmarked) [Example 248, N-(amino(5-((dimethylamino)methyl)-3-fluorothiophen-2-yl)(oxo)-λ^6-sulfaneylidene)-2-(6-(difluoromethyl)-2,4-diisopropylpyridin-3-yl)acetamide]: the IC50 was in the range of 1 to 5 µM.

With `CC(C)c1cc2c(c(C(C)C)c1CC(=O)N=S(N)(=O)c1sc(CN(C)C)cc1F)COC2` (centres unmarked) [Example 249, N-(amino(5-((dimethylamino)methyl)-3-fluorothiophen-2-yl)(oxo)-λ^6-sulfaneylidene)-2-(4,6-diisopropyl-1,3-dihydroisobenzofuran-5-yl)acetamide], the IC50 fell in the range of 1 to 5 µM.

Take `CCc1c2c(cc(C(C)C)c1CC(=O)N=S(N)(=O)c1cnc(C(C)(C)O)s1)COC2` (centres unmarked) [Example 259, N-(amino(2-(2-hydroxypropan-2-yl)thiazol-5-yl)(oxo)-λ^6-sulfaneylidene)-2-(4-ethyl-6-isopropyl-1,3-dihydroisobenzofuran-5-yl)acetamide]: the IC50 fell in the range of 5 to 30 µM.

As to `CC(C)c1cc2c(c(C(C)C)c1CC(=O)N=[S@@](N)(=O)c1cnc(C(C)(C)O)s1)OC(F)(F)O2` [Example 231], the IC50 was in the range of 0.2 to 1 µM.

Consider `CCc1c2c(cc(C(C)C)c1CC(=O)N=S(N)(=O)c1sc(C(C)(C)O)cc1F)COC2` (centres unmarked) [Example 264, N-(amino(3-fluoro-5-(2-hydroxypropan-2-yl)thiophen-2-yl)(oxo)-λ^6-sulfaneylidene)-2-(4-ethyl-6-isopropyl-1,3-dihydroisobenzofuran-5-yl)acetamide], for which the IC50 lay in the range of 0.2 to 1 µM.

`CC(C)c1cc2c(c(C(C)C)c1CC(=O)N=S(N)(=O)c1ccn(C(F)F)n1)COC2` (single isomer, unassigned) [Example 319, (R) or (S)-N-(amino(1-(difluoromethyl)-1H-pyrazol-3-yl)(oxo)-λ^6-sulfaneylidene)-2-(4,6-diisopropyl-1,3-dihydroisobenzofuran-5-yl)acetamide]: the IC50 was 5 to 30 µM.

The same assay, now with this note: Homo sapiens, THP-1, Table B2; 2% fetal bovine serum; cells printed as numeric bound; read-out: hTHP-1 IC50 (Average IC50 of compounds in hTHP-1 assay).
As for `COc1cc(-c2cccc(C(C)C)c2CC(=O)N=S(=O)(NC(N)=O)c2cnc([C@@](C)(O)CO)s2)ccn1` (stereo partly drawn) [Example 354, N-((2-((S)-1,2-dihydroxypropan-2-yl)thiazol-5-yl)(oxo)(ureido)-λ^6-sulfaneylidene)-2-(2-isopropyl-6-(2-methoxypyridin-4-yl)phenyl)acetamide], the IC50 was greater than 30 µM.

On to `CCn1cc(F)c(S(N)(=O)=NC(=O)Cc2c(C(C)C)cc3c(c2C(C)C)COC3)n1` (single isomer, unassigned) [Example 399, (S) or (R)-N-(amino(1-ethyl-4-fluoro-1H-pyrazol-3-yl)(oxo)-λ^6-sulfaneylidene)-2-(4,6-diisopropyl-1,3-dihydroisobenzofuran-5-yl)acetamide], for which the IC50 was greater than 30 µM.

The same assay, now with this note: Homo sapiens, THP-1, Table B2; 2% fetal bovine serum; class symbols; read-out: hTHP-1 IC50 (Average IC50 of compounds in hTHP-1 assay).
As to `CC(C)c1cc(C#N)c(F)c(C(C)C)c1CC(=O)N=[S@](=O)(NC#N)c1cnc([C@](C)(O)CO)s1` (single isomer, unassigned) [Example 371], the IC50 was in the range of 5 to 30 µM.

Take `CC(C)c1cc(C#N)cc(C(C)C)c1CC(=O)N=[S@](=O)(NC#N)c1sc(C(C)(C)O)nc1CCO` [Example 373, (S)-N-(cyanamido(4-(2-hydroxyethyl)-2-(2-hydroxypropan-2-yl)thiazol-5-yl)(oxo)-λ^6-sulfaneylidene)-2-(4-cyano-2,6-diisopropylphenyl)acetamide]: the IC50 fell in the range of 5 to 30 µM.

Still in this assay, the particulars now being: Table B1; 2% fetal bovine serum; class symbols; read-out: hTHP-1 IC50 (Average IC50 of compounds in hTHP-1 assay).
With `CC(C)c1cc(F)cc(C2CC2)c1CC(=O)N=S(N)(=O)c1sc(C(C)(C)O)cc1F` (single isomer, unassigned) [Example 53, (R)- or (S)-2-(2-cyclopropyl-4-fluoro-6-isopropylphenyl)-N-(3-fluoro-5-(2-hydroxypropan-2-yl)thiophen-2-ylsulfonimidoyl)acetamide], the IC50 lay within 1 to 5 µM.

In the case of `CC(C)c1ccc(F)c(C(C)C)c1CC(=O)N=S(N)(=O)c1ncc(C(C)(C)O)s1` (single isomer, unassigned) [Example 187, (S) or (R)-N-(amino(5-(2-hydroxypropan-2-yl)thiazol-2-yl)(oxo)-λ^6-sulfaneylidene)-2-(3-fluoro-2,6-diisopropylphenyl) acetamide], the IC50 lay in the range of 5 to 30 µM.

`CC(C)c1ncc(F)c(C(C)C)c1CC(=O)N=S(N)(=O)c1cc(C(C)(C)O)cs1` (single isomer, unassigned) [Example 209, (S) or (R)-N-(amino(4-(2-hydroxypropan-2-yl)thiophen-2-yl)(oxo)-λ^6-sulfaneylidene)-2-(5-fluoro-2,4-diisopropylpyridin-3-yl)acetamide]: the IC50 lay in the range of 1 to 5 µM.

As for `CC(C)c1cc(OC(F)F)cc(C(C)C)c1CC(=O)N=S(N)(=O)c1cnc(C(C)(C)O)s1` (single isomer, unassigned) [Example 49, (R)- or (S)-2-(4-(difluoromethoxy)-2,6-diisopropylphenyl)-N-(2-(2-hydroxypropan-2-yl)thiazol-5-ylsulfonimidoyl)acetamide], the IC50 lay within 5 to 30 µM.

Consider `CC(C)c1cc(C#N)cc(C2CC2)c1CC(=O)N=S(N)(=O)c1sc(C(C)(C)O)nc1CO` (single isomer, unassigned) [Example 70, (S)- or (R)-(4-cyano-2-cyclopropyl-6-isopropylphenyl)-N-(4-(hydroxymethyl)-2-(2-hydroxypropan-2-yl)thiazol-5-ylsulfonimidoyl)acetamide], for which the half-maximal inhibitory concentration (IC50) fell in the range of 0.2 to 1 µM.

In the case of `CC(C)c1ccc(C#N)c(C(C)C)c1CC(=O)N=S(N)(=O)c1nc(C(C)(C)O)cs1` (single isomer, unassigned) [Example 180, (S) or (R)-N-(amino(4-(2-hydroxypropan-2-yl)thiazol-2-yl)(oxo)-λ^6-sulfaneylidene)-2-(3-cyano-2,6-diisopropylphenyl) acetamide], the IC50 lay within 5 to 30 µM.

On to `CC(C)c1cc(C#N)c(F)c(C(C)C)c1CC(=O)N=S(N)(=O)c1ncc(C(C)(C)O)s1` (single isomer, unassigned) [Example 43], for which the IC50 fell in the range of 1 to 5 µM.

With `CC(C)c1cc(C(F)F)cc(C(C)C)c1CC(=O)N=S(N)(=O)c1ccc(CN(C)C)cc1F` (single isomer, unassigned) [Example 214, (R) or (S)-N-(amino(4-((dimethylamino)methyl)-2-fluorophenyl) (oxo)-λ^6-sulfaneylidene)-2-(4-(difluoromethyl)-2,6-diisopropylphenyl) acetamide], the IC50 lay within 0.04 to 0.2 µM.

The assay is the same for the next values; noted with them: Table B2; 2% fetal bovine serum; class symbols; read-out: hTHP-1 IC50 (Average IC50 of compounds in hTHP-1 assay).
`CC(C)c1cc(C#N)cc(C(C)C)c1CC(=O)N=S(N)(=O)c1nc(CO)c(C(C)(C)O)s1` (single isomer, unassigned) [Example 385, (R) or (S)-N-(amino(4-(hydroxymethyl)-5-(2-hydroxypropan-2-yl)thiazol-2-yl)(oxo)-λ^6-sulfaneylidene)-2-(4-cyano-2,6-diisopropylphenyl)acetamide]: the IC50 is 0.2 to 1 µM.

Regarding `CC(C)c1cc(F)cc(C(C)C)c1CC(=O)N=S(N)(=O)c1sc(C(C)(C)O)nc1CO` (racemic) [Example 356, (R) and (S)—N-(amino(4-(hydroxymethyl)-2-(2-hydroxypropan-2-yl)thiazol-5-yl)(oxo)-λ^6-sulfaneylidene)-2-(4-fluoro-2,6-diisopropylphenyl)acetamide], the IC50 was 0.2 to 1 µM.

Source of the values: patent US20230059136A1, “THE COMPOUNDS AND COMPOSITIONS FOR TREATING CONDITIONS ASSOCIATED WITH NLRP ACTIVITY” (Novartis AG, priority 2018, published 2023).
